The values below come from the supplement of paper PMC4862054.

The test system of test [1] is BT-474. As to conditions: 72 h. The procedure, abridged: (§1)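 For viability and cell death testing, 384-well plates carried compound at 5 concentrations in 10-fold steps over a compound-specific 10,000-fold range, and breast cancer cell lines were seeded in 20 µl suspension. After 72 h incubation, cell death was read by CellTox Green fluorescence (485/520 nm) before viability was read by CellTiter-Glo luminescence. EC50 was fitted from the dose-response curves and censored at the top concentration. Normalisation on each plate was to 0.1 % DMSO and a positive kill control.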

In test [2] the test system is CAL-51. As to conditions: 72 h. A digest of the protocol:
as §1

Test [3] relates to MDA-MB-468. As to conditions: 72 h. A digest of the protocol:
as §1

In test [4] the test system is HCC1937. As to conditions: 72 h. A digest of the protocol:
(§2)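 EC50 is the value from a fitted percent-inhibition dose-response curve, censored at the highest concentration, and rows with zero drug sensitivity score were not kept. The underlying assay seeded breast cancer cell lines in 20 µl onto 384-well plates pre-loaded with compound in 5 µl medium for 72 h. Viability was then read by CellTiter-Blue fluorescence at 560/590 nm after 2 h at 37 °C, with each plate normalised to vehicle and a positive kill control.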

Test [5] relates to MDA-MB-231. As to conditions: 72 h. A digest of the protocol:
as §2

The subject of test [6] is CAL-120. As to conditions: 72 h. The procedure, abridged:
as §2

Test [7] relates to DU-4475. Kind of test: normalised viability (% of control), CellTiter-Blue; higher = more viable cells (about 100 = DMSO control). As to conditions: incubation time: 72 h. Here is the method: (§3)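 DSRT, CellTiter-Blue viability, 72 h incubation. Signal is normalised to DMSO and benzethonium chloride controls. Value is the normalised response at dose 9.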
(The colour change of resazurin is a common sign of viable cells or microbes.)

In test [8] the test system is CAL-148. The description is as above. As to conditions: incubation time: 72 h. The protocol:
as §3

The subject of test [9] is HDQ-P1. Described as above. As to conditions: incubation time: 72 h. Here is the method:
as §3

For test [10], the system named is CAL-51. Described as above. As to conditions: incubation time: 72 h. Here is the method:
as §3

Test [11] has as its system MDA-MB-453. The test is described as above. As to conditions: incubation time: 72 h. The protocol:
as §3

For test [12], the system named is CAL-85-1. The description is as above. As to conditions: incubation time: 72 h. Here is the method:
as §3

In test [13] the test system is DU-4475. Kind of test: normalised response (% of control), CellTiter-Glo; higher = more viable cells (100 = DMSO, 0 = benzethonium chloride kill control). As to conditions: incubation time: 72 h. A digest of the protocol: (§4)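 Every value is a normalised signal taken at one concentration of a dilution series. Compound was placed in 384-well plates at 5 concentrations in 10-fold steps over a compound-specific 10,000-fold range, and 20 µl of breast cancer cell suspension was seeded onto it. After 72 h, CellTox Green fluorescence (485/520 nm) was measured first and CellTiter-Glo luminescence second, following 10 min at room temperature. Each plate was scaled to 0.1 % DMSO (100) and a positive kill control (0).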

Test [14] deals with HCC1937. The test is described as above. As to conditions: incubation time: 72 h. A digest of the protocol:
as §4

The subject of test [15] is HCC1599. The description is as above. As to conditions: incubation time: 72 h. The procedure, abridged: as §4
Test [16] relates to MFM-223. The description is as above. As to conditions: incubation time: 72 h. The procedure, abridged:
as §4

Test [17] relates to Hs578T. The test is described as above. As to conditions: incubation time: 72 h. A digest of the protocol:
as §4

For test [18], the system named is MDA-MB-231. The test is described as above. As to conditions: incubation time: 72 h. A digest of the protocol:
as §4

For test [19], the system named is HDQ-P1. The test is described as above. As to conditions: incubation time: 72 h. The procedure, abridged: as §4
Test [20] relates to SK-BR-3. The test is described as above. As to conditions: incubation time: 72 h. The procedure, abridged:
as §4

The test system of test [21] is BT-474. The description is as above. As to conditions: incubation time: 72 h. A digest of the protocol:
as §4

Test [22] has as its system CAL-51. The test is described as above. As to conditions: incubation time: 72 h. A digest of the protocol:
as §4

The subject of test [23] is MDA-MB-468. The description is as above. As to conditions: incubation time: 72 h. The procedure, abridged:
as §4

In test [24] the test system is MDA-MB-453. The description is as above. As to conditions: incubation time: 72 h. A digest of the protocol: as §4
Test [25] relates to MCF-10A. The description is as above. As to conditions: incubation time: 72 h. The procedure, abridged:
as §4

For test [26], the system named is CAL-120. Described as above. As to conditions: incubation time: 72 h. A digest of the protocol:
as §4

Test [27] deals with CAL-85-1. Described as above. As to conditions: incubation time: 72 h. A digest of the protocol:
as §4

Test [28] deals with BT-549. Described as above. As to conditions: incubation time: 72 h. A digest of the protocol: as §4

For `O=C(CCCCCCC(=O)Nc1ccc([C@H]2O[C@@H](CSc3nc(-c4ccccc4)c(-c4ccccc4)o3)C[C@@H](c3ccc(CO)cc3)O2)cc1)NO` [Tubacin], the figures for the “EC50, CellTiter-Glo” value in [1], in [2] and in test [3] were 3650 nM, 4570 nM and 1730 nM, respectively.
Consider `CN[C@@H]1C[C@H]2O[C@@](C)([C@@H]1OC)n1c3ccccc3c3c4c(c5c6ccccc6n2c5c31)C(=O)N[C@H]4O` [UCN-01], for which the “EC50, CellTiter-Glo” value in [1] amounted to 43.4 nM; in test [2], 77.5 nM; in test [3], 93.2 nM. Besides, the entries for the “EC50, CellTiter-Blue viability” value in test [4], in test [5] and in test [6] were 58 nM, 59.2 nM and 24.5 nM, respectively.
For the compound `CN[C@@H]1C[C@H]2O[C@@](C)([C@@H]1OC)n1c3ccccc3c3c4c(c5c6ccccc6n2c5c31)C(=O)N[C@H]4O` [UCN-01] (10000 nM), the normalised viability in test [7] is 2.14%; in test [8], 3.64%; in [9] it was 2.76%; in [10], 5.97%; in [11], 2.09%; in test [12], 1.96%. The normalised response in test [13] came out at 3.81%; in test [14], 7.74%; in test [15], 13.7%; in [16], 24.1%; in test [17], 2.67%; in test [18] it was 1.54%. The normalised response worked out at 2.74% in [19]; 2.06% in test [20]; 4.43% in test [21]; 2.83% in test [22]; 1.36% in test [23]; 5.51% in test [24]. The normalised response in test [25] is 0.69%; in test [26], 7.18%; in test [27], 0.55%; in test [28], 0.77%.
For the compound `Clc1ccc(Nc2nnc(Cc3ccncc3)c3ccccc23)cc1` [Vatalanib] (10000 nM), the normalised viability in test [7] came out at 102%; in [8] it was 84.5%; in test [9], 90.6%; in [10], 99.4%; in [11], 91.1%; in [12] it was 83.2%. Also, the normalised response in [13] worked out at 95.2%; in [14], 96%; in test [15], 91.5%; in test [16], 110%; in test [17] it was 106%; in test [18], 101%. The normalised response in [19] stood at 98.4%; in test [20], 95.5%; in [21] it was 94.5%; in test [22], 115%; in test [23] it was 75.2%; in test [24] it was 90.3%. Also, the normalised response in test [25] amounted to 110%; in [26] it was 104%; in test [27], 106%; in [28], 95.5%.
Take `Oc1nc(-c2ccc(C(F)(F)F)cc2)nc2c1CSCC2` [XAV-939]: the “EC50, CellTiter-Glo” value in test [1] was 350 nM; in test [2] it was 12.6 nM. Besides, in [5], the “EC50, CellTiter-Blue viability” value was 2590 nM.
Take `Oc1nc(-c2ccc(C(F)(F)F)cc2)nc2c1CSCC2` [XAV-939] (10000 nM): the normalised viability in [7] came out at 100%; in test [8] it was 76.9%; in test [9] it was 76.2%; in test [10], 89.2%; in test [11], 71.5%; in [12], 82.3%. For the same compound, the normalised response came out at 87.3% in test [13]; 89.7% in test [14]; 80.6% in test [15]; 89.4% in test [16]; 95.9% in test [17]; 74.5% in [18]. Moreover, the normalised response in test [19] stood at 86.7%; in [20] it was 84.5%; in [21], 73%; in test [22] it was 66.6%; in test [23] it was 92.1%; in test [24], 81.7%. Moreover, the normalised response in test [25] is 84.5%; in [26], 92.8%; in test [27], 95.8%; in test [28], 90.5%.
